Data set [1] has as its system HepG2 cells. As to the kind of experiment: HepG2 72-h cytotoxicity assay (glucose medium, ATP content). In kind it is cell-based, human. As for the experimental part: (§1) Cytotoxicity of TAK-994 was evaluated in glucose or galactose medium after 24 h and in glucose medium after 72 h in HepG2 cells, with cryopreserved HepG2 cells thawed and seeded onto assay plates at 5,000 cells/well in glucose or galactose medium for the 24-h assay and at 2,500 cells/well in glucose medium for the 72-h assay. After ∼24 h of incubation at 37 °C in 5% CO2, the cells were incubated with test solutions under the same conditions for 24 h for the plate with 5,000 cells/well or 72 h for the plate with 2,500 cells/well. Cytotoxicity of TAK-994 was also assessed using HepG2 cells with CYP3A4 overexpression using a lentivirus vector. HepG2/CYP3A4 cells were incubated in media containing TAK-994 (0.09 to 200 μM), positive control aflatoxin B1 (0.04 to 80 μM), or 1.0% DMSO (negative control). In both cytotoxicity assays, adenosine triphosphate (ATP) content was assessed after incubation using a commercial luminescence assay (CellTiter-Glo; Promega Co., Ltd, WI, United States).
HepG2 cells (American Type Culture Collection [ATCC, VA, USA]) were acclimated to Dulbecco's Modified Eagle Medium (DMEM; Thermo Fisher Scientific, MA, USA) with either high glucose or high galactose and containing 10% FBS for 1 week then cryopreserved. The cryopreserved HepG2 cells were thawed, cultured for 24 hours, then seeded at 5000 cells/well in glucose or galactose medium for the 24-hour assay and at 2500 cells/well in glucose medium for the 72-hour assay onto the assay plates. After approximately 24 hours of incubation at 37°C in 5% CO2, the cells were incubated with test solutions under the same conditions for 24 hours for the plate with 5000 cells/well or 72 hours for the plate with 2500 cells/well. After the incubation, CellTiter-Glo® (Promega Co., Ltd., WI, USA) was added to the assay plates, cells were incubated for 30 minutes, and luminescence was recorded to measure the ATP content using an EnVision plate reader (PerkinElmer Co., Ltd., MA, USA). The test compound TAK-994 was evaluated at concentrations of 0.046, 0.14, 0.41, 1.2, 3.7, 11, 33, and 100 μM. Positive controls rotenone and staurosporine were purchased from FUJIFILM Wako Pure Chemical Corporation (Osaka, Japan) and evaluated at concentrations of 0.046, 0.14, 0.41, 1.2, 3.7, 11, 33, and 100 μM in DMSO (rotenone) or 0.0046, 0.014, 0.041, 0.12, 0.37, 1.1 , 3.3, and 10 μM in DMSO (staurosporine). Two experiments were conducted at each concentration.
Inhibition rate (%) = (1-mean of sample values / mean of Max values) × 100, where Max values = vehicle control.

The subject of data set [2] is HepG2 cells. As to the kind of experiment: HepG2 Glu/Gal 24-h cytotoxicity (mitochondrial toxicity). It counts as cell-based, human. As to conditions: glucose or galactose medium. As for the experimental part: as §1
HepG2 cells (American Type Culture Collection [ATCC, VA, USA]) were acclimated to Dulbecco's Modified Eagle Medium (DMEM; Thermo Fisher Scientific, MA, USA) with either high glucose or high galactose and containing 10% FBS for 1 week then cryopreserved. […] After the incubation, CellTiter-Glo® (Promega Co., Ltd., WI, USA) was added to the assay plates, cells were incubated for 30 minutes, and luminescence was recorded to measure the ATP content using an EnVision plate reader (PerkinElmer Co., Ltd., MA, USA). The test compound TAK-994 was evaluated at concentrations of 0.046, 0.14, 0.41, 1.2, 3.7, 11, 33, and 100 μM. Positive controls rotenone and staurosporine were purchased from FUJIFILM Wako Pure Chemical Corporation (Osaka, Japan) and evaluated at concentrations of 0.046, 0.14, 0.41, 1.2, 3.7, 11, 33, and 100 μM in DMSO (rotenone) or 0.0046, 0.014, 0.041, 0.12, 0.37, 1.1 , 3.3, and 10 μM in DMSO (staurosporine). […]

A further data set deals with human liver microtissues. The data set can be described thus: Human liver microtissue (co-culture) cytotoxicity, cellular ATP. It counts as cell-based. As for the experimental part:
Toxicology of TAK-994 was assessed using lnSphero’s 3D lnSight Human Liver models, based on N-acetyl-L-cysteine causality assay, glutathione depletion assay, and lipopolysaccharide (LPS)-sensitization assay. Hepatotoxicity was assessed in 7- and 14-day mono and co-culture models, in which cells were exposed to TAK-994 (0.1, 0.3, 1, 3.16, 10, 31.6, or 100 μM) […].
The test system was Human 3D InSight Liver Models, production ID hLiMT_589, cryopreserved primary human hepatocytes (Lot IPDH_18; single donor) in monoculture or in co-culture with cryopreserved primary human nonparenchymal cells (Lot IPHN_17; single donor). Human liver microtissues are composed of roughly 1000 hepatocytes and 1000 non-parenchymal live cells. Non-parenchymal liver cell fractions are expected to be composed of Kupffer cells and liver endothelial cells however, these were not identified.
The culture medium was 3D InSight Human Liver Maintenance Medium TOX (Catalogue No. CS-07-001, InSphero). The treated cells in 96-well Akura™ plates were incubated in a humidified cell culture incubator (37°C, 5% CO2).
Mono and co-culture model cells were exposed to TAK-994 (0.1, 0.3, 1, 3.16, 10, 31.6, or 100 μM in 0.5% DMSO) for 7 days (TAK-994 administered on Days 0 and 4) or 14 days (TAK-994 administered on Days 0, 5, and 9). Six replicates were tested for each condition. The vehicle control was 0.5% DMSO, and the positive control was chlorpromazine (0.1, 0.3, 1, 3.16, 10, 31.6, or 100 μM in DMSO). Cellular ATP content was measured in the cell lysate on Days 7 or 14 of treatment. LDH release was measured in the cell supernatant on Days 4 and 7 or on Days 5, 9, and 14 and normalized to lysed controls.
Intracellular ATP content in model lysates was measured with the CellTiter-Glo® 2.0 Cell Viability Assay (Catalogue No. G9243, Promega). The Bioluminescent LDH Release Toxicity Assay Kit (Catalogue No. J2380, Promega) was used to assess extracellular LDH release and normalized to lysed controls. ATP, LDH, GSH, and triglycerides were measured according to internal technical operating procedures.

The next data set addresses human BSEP (Homo sapiens, UniProt O95342). As to the kind of experiment: BSEP inhibition, [3H]TCA uptake into membrane vesicles. In kind it is biochemical. Particulars: [3H]TCA transport. As for the experimental part: Covalent binding of TAK-994 was assessed by incubating [^14C]TAK-994 with human hepatocytes. The CVB level was determined by relating the total amount of radioactivity (pmol equivalent) to the protein concentration in each sample. Assessment of TAK-994 inhibition potential for the bile salt efflux pump (BSEP) was assessed by incubating [^3H(G)]taurocholic acid with TAK-994 (0 to 100 μM/l) or cyclosporin A after addition of 10 μl of membrane vesicles expressing BSEP or control membrane vesicles. Scintillation counts were assessed in two 5-min cycles.
Membrane vesicles prepared from baculovirus-infected insect cells, expressing human BSEP or controls (Lot Nos. ISAOG29 and IKING23, respectively), were purchased from GenoMembrane Co., Ltd.
The [^3H]TCA reaction mixture (n=42) containing TAK-994 (including 0–100 μM/L TAK-994) or cyclosporin A was pre-incubated at 37°C for 5 minutes. The transport reaction was initiated by addition of 10 μL of membrane vesicles expressing BSEP or control membrane vesicles (0.05 mg protein) to the [^3H]TCA reaction mixture (final [^3H]TCA concentration of 2 μM/L). […] The glass fiber filter was measured for radioactivity using an LSC. […]
The count rates in cpm were corrected to dpm, with the background and counting efficiency assessed using the external standard method described by the manufacturer. […]

Where only a bound is given, the exact number is not on record here.

human BSEP, sequence (O95342 whole entry): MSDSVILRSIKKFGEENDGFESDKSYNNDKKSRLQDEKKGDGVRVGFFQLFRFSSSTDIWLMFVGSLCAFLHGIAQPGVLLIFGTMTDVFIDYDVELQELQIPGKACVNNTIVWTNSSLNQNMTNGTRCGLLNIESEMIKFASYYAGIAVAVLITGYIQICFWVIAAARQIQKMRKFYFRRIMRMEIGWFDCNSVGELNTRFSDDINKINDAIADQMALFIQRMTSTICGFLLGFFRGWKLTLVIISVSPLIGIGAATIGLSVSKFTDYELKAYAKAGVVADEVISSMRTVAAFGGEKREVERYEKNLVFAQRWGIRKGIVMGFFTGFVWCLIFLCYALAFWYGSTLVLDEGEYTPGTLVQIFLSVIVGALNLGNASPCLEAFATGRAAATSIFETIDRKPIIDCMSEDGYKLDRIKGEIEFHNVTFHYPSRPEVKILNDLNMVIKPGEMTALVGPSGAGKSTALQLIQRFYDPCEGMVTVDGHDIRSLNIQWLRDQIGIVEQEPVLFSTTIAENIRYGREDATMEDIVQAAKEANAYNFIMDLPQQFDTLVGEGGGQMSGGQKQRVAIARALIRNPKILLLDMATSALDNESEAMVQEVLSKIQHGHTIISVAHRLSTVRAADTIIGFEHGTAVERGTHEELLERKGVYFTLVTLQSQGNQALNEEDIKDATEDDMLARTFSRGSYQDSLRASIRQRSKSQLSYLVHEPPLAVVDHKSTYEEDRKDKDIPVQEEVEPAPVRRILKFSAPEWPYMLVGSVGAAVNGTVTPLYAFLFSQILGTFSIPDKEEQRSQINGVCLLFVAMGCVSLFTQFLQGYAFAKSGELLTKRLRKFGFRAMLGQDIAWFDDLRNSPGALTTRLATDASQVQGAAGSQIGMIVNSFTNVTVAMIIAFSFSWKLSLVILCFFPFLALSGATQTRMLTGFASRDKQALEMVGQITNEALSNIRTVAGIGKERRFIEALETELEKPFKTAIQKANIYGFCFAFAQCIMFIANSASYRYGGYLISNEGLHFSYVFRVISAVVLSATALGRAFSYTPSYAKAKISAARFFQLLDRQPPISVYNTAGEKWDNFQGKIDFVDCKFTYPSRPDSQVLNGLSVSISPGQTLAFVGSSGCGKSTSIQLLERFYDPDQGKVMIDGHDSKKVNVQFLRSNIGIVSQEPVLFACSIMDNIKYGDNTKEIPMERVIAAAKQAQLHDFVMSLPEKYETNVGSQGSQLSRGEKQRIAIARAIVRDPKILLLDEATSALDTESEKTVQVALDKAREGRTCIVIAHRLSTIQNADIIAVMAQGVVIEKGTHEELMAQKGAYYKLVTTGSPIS

`CC(C)(O)C(=O)N1CC[C@H](NS(C)(=O)=O)[C@@H]1Cc1cccc(-c2cc(F)cc(F)c2)c1F.CC(C)(O)C(=O)N1CC[C@H](NS(C)(=O)=O)[C@@H]1Cc1cccc(-c2cc(F)cc(F)c2)c1F.O.O.O` [TAK-994]: the IC50 in the data set with HepG2 cells [1] was greater than 100 µM; with HepG2 cells [2], greater than 100 µM; with human liver microtissues (cellular ATP, read-out: IC50, liver microtissues (Fig. 2B)), greater than 100 µM; on human BSEP, 34.1 µM. The “cytotoxicity margin (Cmax/IC50)” value in the data set on HepG2 cells [1] is listed as greater than 100 ×. The “top test concentration (100 µM) relative to Cmax in patients” value in the data set with HepG2 cells [1] (human) is given as roughly 100 fold. For the same compound, the “loss of cellular ATP” value in the data set with human liver microtissues (100 µM TAK-994, presence of nonparenchymal cells) is roughly 50%. For the same compound, the “liver microtissue IC50 relative to clinical Cmax” value in the data set on human liver microtissues (14 days, Cmax in patients dosed at 90 mg) is recorded as greater than 100 fold.

By IC50 is commonly meant the concentration that inhibits the measured activity by half.

The values above are taken from article PMC11939078, “TAK-994 mechanistic investigation into drug-induced liver injury” (Toxicological Sciences, 2025).
